{
  "source": "patent US20250339409A1",
  "about": "“USES OF PAN BET INHIBITORS” (VYNE THERAPEUTICS INC., priority 2021, published 2025)",
  "system": "anti collagen antibodies induced arthritis (ACAIA)",
  "assay": "ACAIA mice: histopathology of hind paws (tarsus);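 also: Mid-sagittal H&E-stained sections of mouse tarsus taken at study end, lesion severity graded from 0 (normal) to 4 (severe)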",
  "format": "in vivo, Balb/c mice",
  "parameters": "key to Histology: Score / Histology: Score, MEAN: 0 = within normal limits, 1 minimal, 2 mild, 3 moderate, 4 severe",
  "conditions": "for Histology: Score, MEAN: group mean; for Histology: Bones / Histology: Cartilage / Histology: Joint space / Histology: Score / Histology: Soft tissue: individual animals",
  "key": {"[1]": {"conditions": "1 mg/kg IA (Group 3), L paw (injected)"}, "[2]": {"conditions": "1 mg/kg IA (Group 3), R paw (contralateral)"}, "[3]": {"conditions": "10 mg/kg IA (Group 2), Mean±SEM"}, "[4]": {"conditions": "10 mg/kg IA (Group 2), L paw (injected)"}, "[5]": {"conditions": "10 mg/kg IA (Group 2), R paw (contralateral)"}, "[6]": {"conditions": "1 mg/kg IA (Group 7), L paw (injected)"}, "[7]": {"conditions": "1 mg/kg IA (Group 7), R paw (contralateral)"}},
  "note": "Several values for one entry are separate records, joined by “and”; a condition that tells them apart may be missing. Equal values may be shown once.",
  "description": "At the end of the study, the mice are euthanized using pentobarbital sodium injection. Once euthanized, one hind paw of each animal is harvested and collected into vials containing 4% formalin for histology analysis.\nThe samples are sagittal sections of the right and left murine tarsus. The histology scoring is based on the severity of the lesions, taking into account both the number of infiltrating cells and the extent of cartilage and bone damage. To be classified as severe, a lesion has to show bone and cartilage damage (beyond degeneration for the latter). The scores are 0=within normal limits, 1-minimal, 2-mild, 3-moderate, 4-severe.\nStatistics and data evaluation are primarily based on the mean values for body weight, arthritis clinical scoring and paw thickness measurements. Where appropriate, analysis of the data by one-way ANOVA followed by Dunnett's post-test is applied to determine the significance of treatment effects. All data for the histopathological analysis is presented as Mean±SEM. The treatment groups are compared to the Vehicle group (Group 1) or the contralateral hind paw using the Student's T-test. A p-value <0.05 is considered to represent a significant difference.\nHistopathological analysis was conducted in accordance with Method B. Tissues from groups 1, 2, 3 and 7 were processed. Following decalcification, the tissues were cut mid-sagitally and were processed and sectioned for H & E staining. The histopathological analysis included an examination of the number of infiltrating cells and the extent of cartilage and bone damage.",
  "data": [
    {"smiles": "Cn1cc(-c2cccc(O)c2Oc2ccccc2)c2cc[nH]c2c1=O", "note": "[BETi1]", "values": [
      {"measurement": "mean histopathological score, treated left hind paw", "setting": "1 mg/kg IA (Group 3), Mean±SEM", "value": "2.14±0.55", "unit": "a.u."},
      {"measurement": "Histology: Score, MEAN", "setting": "[1]", "value": 2.14},
      {"measurement": "Histology: Bones", "setting": "[1]", "value": "3.5 and 2 and 0 (3×) and 3 and 4"},
      {"measurement": "Histology: Cartilage", "setting": "[1]", "value": "3.5 and 2 and 0 (3×) and 3 and 4"},
      {"measurement": "Histology: Joint space", "setting": "[1]", "value": "4 (4×) and 0 (3×)"},
      {"measurement": "Histology: Score", "setting": "[1]", "value": "3.5 (3×) and 2.5 and 1 (2×) and 0"},
      {"measurement": "Histology: Soft tissue", "setting": "[1]", "value": "3 (2×) and 2.5 (2×) and 1 (2×) and 0"},
      {"measurement": "Histology: Score, MEAN", "setting": "[2]", "value": 3.57},
      {"measurement": "Histology: Bones", "setting": "[2]", "value": "4 (5×) and 0 and 3.5"},
      {"measurement": "Histology: Cartilage", "setting": "[2]", "value": "4 (6×) and 0"},
      {"measurement": "Histology: Joint space", "setting": "[2]", "value": "4 (6×) and 0"},
      {"measurement": "Histology: Score", "setting": "[2]", "value": "4 (6×) and 1"},
      {"measurement": "Histology: Soft tissue", "setting": "[2]", "value": "4 (3×) and 1 and 3.5 (2×) and 3"},
      {"measurement": "histopathology findings, treated paws", "setting": "1 mg/kg IA (Group 3L), 3/7 cases", "value": "moderate to severe lesions with destruction of cartilage and bone"},
      {"measurement": "mean histopathological score, contralateral right hind paw", "setting": "[3]", "value": "4.00±0.00", "unit": "a.u."},
      {"measurement": "mean histopathological score, treated left hind paw", "setting": "[3]", "value": "0.33±0.21", "unit": "a.u."},
      {"measurement": "Histology: Score, MEAN", "setting": "10 mg/kg IA (Group 2), L paw (injected), **p < 0.01 vs Vehicle Group, ##p < 0.01 vs contralateral (Right) paw", "value": "0.33**##"},
      {"measurement": "Histology: Bones", "setting": "[4]", "value": 0},
      {"measurement": "Histology: Cartilage", "setting": "[4]", "value": 0},
      {"measurement": "Histology: Joint space", "setting": "[4]", "value": 0},
      {"measurement": "Histology: Score", "setting": "[4]", "value": "0 (4×) and 1 (2×)"},
      {"measurement": "Histology: Soft tissue", "setting": "[4]", "value": "0 (4×) and 1 (2×)"},
      {"measurement": "Histology: Score, MEAN", "setting": "[5]", "value": 4.00},
      {"measurement": "Histology: Bones", "setting": "[5]", "value": 4},
      {"measurement": "Histology: Cartilage", "setting": "[5]", "value": 4},
      {"measurement": "Histology: Joint space", "setting": "[5]", "value": 4},
      {"measurement": "Histology: Score", "setting": "[5]", "value": 4},
      {"measurement": "Histology: Soft tissue", "setting": "[5]", "value": "4 (4×) and 3.5 (2×)"},
      {"measurement": "histopathology findings, treated paws", "setting": "10 mg/kg IA (group 2L)", "value": "4/6 were WNL"}
    ]},
    {"smiles": "C[C@@H]1C[C@H]2[C@@H]3CCC4=CC(=O)C=C[C@]4(C)[C@@]3(F)[C@@H](O)C[C@]2(C)[C@@]1(O)C(=O)CO", "note": "[dexamethasone, Dexamethasone, reference compound]", "values": [
      {"measurement": "Histology: Score, MEAN", "setting": "[6]", "value": 2.93},
      {"measurement": "Histology: Bones", "setting": "[6]", "value": "4 (2×) and 0 and 3 (3×) and 2.5"},
      {"measurement": "Histology: Cartilage", "setting": "[6]", "value": "4 (2×) and 0 and 3 (2×) and 2.5 (2×)"},
      {"measurement": "Histology: Joint space", "setting": "[6]", "value": "4 (6×) and 0"},
      {"measurement": "Histology: Score", "setting": "[6]", "value": "4 (2×) and 1 and 3 (3×) and 2.5"},
      {"measurement": "Histology: Soft tissue", "setting": "[6]", "value": "4 (2×) and 1.5 and 2 (2×) and 3 and 2.5"},
      {"measurement": "Histology: Score, MEAN", "setting": "[7]", "value": 2.29},
      {"measurement": "Histology: Bones", "setting": "[7]", "value": "0 (3×) and 4 (4×)"},
      {"measurement": "Histology: Cartilage", "setting": "[7]", "value": "0 (3×) and 4 (4×)"},
      {"measurement": "Histology: Joint space", "setting": "[7]", "value": "0 (3×) and 4 (4×)"},
      {"measurement": "Histology: Score", "setting": "[7]", "value": "0 (3×) and 4 (4×)"},
      {"measurement": "Histology: Soft tissue", "setting": "[7]", "value": "0 (3×) and 4 (4×)"}
    ]}
  ]
}
